Laboratory results taken from ChEMBL document CHEMBL4699395, “Synthesis and evaluation of novel 2,4-disubstituted arylthiazoles against T. brucei” (RSC Med Chem, 2020).

What was measured:
Trypanosoma brucei = assay: Antitrypanosomal activity against Trypanosoma brucei 427 bloodstream form assessed as concentration required to inhibit 50% parasite growth incubated for 48 hrs by Alamar blue assay; type: functional, organism-based; conditions: Trypanosoma brucei, 427, 48 h
[1] = Selectivity index, ratio of IC50 for rat L6 cells assessed as cell growth inhibition incubated for 6 days by Alamar blue assay to IC50 for Trypanosoma brucei 427 bloodstream form assessed as parasite growth inhibition incubated for 48 hrs by Alamar blue assay; conditions: L6 cells (versus Trypanosoma brucei 427 bloodstream form)

Row | IC50 (Trypanosoma brucei) | SMILES | selectivity ratio at 48 h [1]
1 | 10 µM | N=C(N)Nc1nc(-c2ccc(C34CC5CC(CC(C5)C3)C4)cc2)cs1 | –
2 | – | NCc1nc(-c2ccc(C34CC5CC(CC(C5)C3)C4)cc2)cs1 | < 1
